Test results: PubChem BioAssay AID2346 (The Scripps Research Institute Molecular Screening Center, 2010)

Molecular target: Sphingosine 1-phosphate receptor 4 (Homo sapiens) (UniProt O95977)
Experiment: S1P4 receptor antagonists, human, late-stage follow-up, cell-based, fluorescence, synthesized analogues (AID 2346)
Conditions: S1P4-expressing cells, antagonist fluorescence read-out

Sequence of Sphingosine 1-phosphate receptor 4 (Homo sapiens) (O95977 whole entry, looked up): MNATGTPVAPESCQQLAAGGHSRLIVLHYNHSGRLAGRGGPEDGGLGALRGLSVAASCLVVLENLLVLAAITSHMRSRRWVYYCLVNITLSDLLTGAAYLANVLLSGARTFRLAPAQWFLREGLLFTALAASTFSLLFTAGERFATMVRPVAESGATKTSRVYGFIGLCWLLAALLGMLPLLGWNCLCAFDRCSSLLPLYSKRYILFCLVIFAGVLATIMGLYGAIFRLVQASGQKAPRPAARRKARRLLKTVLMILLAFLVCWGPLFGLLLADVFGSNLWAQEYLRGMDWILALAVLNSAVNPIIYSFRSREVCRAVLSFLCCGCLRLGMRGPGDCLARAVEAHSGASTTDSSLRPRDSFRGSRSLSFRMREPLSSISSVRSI

| SMILES | IC50 |
| --- | --- |
| COc1cccc(C)c1NC(=O)c1ccc(-c2cc(Cl)ccc2Cl)o1 | 163 nM |
| Cc1cccc(C)c1NC(=O)c1ccc(-c2cc(F)ccc2F)o1 | 308 nM |
| Cc1ccc(C)c(NC(=O)c2ccc(-c3cc(Cl)ccc3Cl)o2)c1 | 165 nM |
| CCc1cccc(CC)c1NC(=O)c1ccc(-c2cc(Cl)ccc2Cl)o1 | 89 nM |
| Cc1ccc2ccccc2c1NC(=O)c1ccc(-c2cc(Cl)ccc2Cl)o1 | 253 nM |
| Cc1cccc(C)c1NC(=O)c1ccc(-c2cccc(Cl)c2)o1 | 497 nM |
| COc1cccc(OC)c1NC(=O)c1ccc(-c2cc(Cl)ccc2Cl)o1 | 417 nM |
| Cc1cccc(Cl)c1NC(=O)c1ccc(-c2cc(Cl)ccc2Cl)o1 | 169 nM |
| CC(C)c1cccc(C(C)C)c1NC(=O)c1ccc(-c2cc(Cl)ccc2Cl)o1 | 105 nM |
| Cc1cscc1-c1ccc(C(=O)Nc2c(C)cccc2C)o1 | 286 nM |
| Cc1ccc(S(C)(=O)=O)c(C)c1NC(=O)c1ccc(-c2cc(Cl)ccc2Cl)o1 | 302 nM |
